# Measured values published in patent publication US20240041840A1 (Areteia Therapeutics, Inc., priority 2020, published 2024).
# Where two headings read alike, the source gives them in different places.
# What was measured:
# [1] = system: subjects with eosinophilic asthma; conditions: for ACQ-6 Change from Baseline LSM / ACQ-6 Difference vs Placebo LSM (95% CI): 12 weeks
# From the text: The ACQ cutoff for well-controlled asthma is a score of about 0.75, and the ACQ cutoff for uncontrolled asthma is a score of about ≥1.5. An ACQ score change of ≥0.5 is considered clinically significant.
# Evaluation of Efficacy: Blood eosinophil count, changes in pulmonary function (FEV1), Asthma Control Questionnaire (ACQ-6), Asthma Control Questionnaire (ACQ-7), Asthma Quality of Life Questionnaire (AQLQ), exhaled nitric oxide, pharyngeal and nasal eosinophil peroxidase were collected periodically during the study.
# Juniper Asthma Control Six Point Questionnaire (ACQ-6)—Baseline and visits 5, 8, 11 and 14. The ACQ-6 will be used to assess improvements in asthma symptom control (6). The ACQ-6 was originally validated in participants with asthma aged 17 to 90 years (2, 3, and is one of several asthma control measures recommended by GINA Guidelines). The ACQ-6 consists of 6 items: 5 items on symptom assessment, 1 item on rescue bronchodilator use. The ACQ-6 has been fully validated, including a minimal important difference (MID) or smallest change that can be considered clinically important (0.5). The ACQ-6 will be self-administered at the clinic (questions 1-6 only) and it only takes a few minutes to complete. Participants are asked how they have been feeling during the past week and to score each item on a […] response scale, where 0 indicates ‘totally controlled’ and 6 indicates ‘severely uncontrolled.’ The total score is calculated as the mean of all questions. The questionnaire should always be completed before any other assessments.
# [2] = system: subjects with eosinophilic asthma; conditions: for Post-Bronchodilator FEV1 Reversibility % change, mean / Post-Bronchodilator FEV1 Reversibility % change, median / Post-Bronchodilator FEV1 Reversibility change, mean / Post-Bronchodilator FEV1 Reversibility change, median / Post-Bronchodilator FEV1 Reversibility observed, mean / Post-Bronchodilator FEV1 Reversibility observed, median: Week 12
# Protocol: (§1) Pulmonary function is measured by performing a spirometry, which measures forced expiratory volume in is (FEV1), the volume of air moved in the first second of exhalation, this is a well-accepted measure of asthma. Forced vital capacity (FVC) is the total volume of air exhaled during the entire forced expiratory volume (FEV) test. The FEV1/FVC ratio is a calculated measure that may provide a more specific measure of bronchoconstriction, independent of processes such as air trapping. Pulmonary function testing can be tested pre-bronchodilator (after waiting a sufficient time so that all bronchodilator medications have cleared) or post-bronchodilator, typically 15-30 minutes after inhaling a short-acting bronchodilator, such as albuterol. Bronchodilator reversibility (BDR) is calculated and assessed by analyzing FEV1 pre- and post-bronchodilator, and calculating the change both as absolute (ml) and percentage change.
# Table 10 provides the data for analyzing bronchodilator reversibility, the % improvement in FEV1 pre/post albuterol bronchodilator (same day). The study entry criteria required ≥12% and ≥200 mL at screening. These values are accepted in the diagnosis of asthma.
# blood eosinophils [3] = system: blood eosinophils
# From the text: The protocol enrolled symptomatic eosinophilic asthmatic subjects 18-75 years with moderate to greater disease severity as defined by GINA steps 3-5.
# This clinical study is a randomized, double-blind, placebo-controlled, parallel-group, dose-ranging, multi-center study. Subjects received open-label placebo during the Run-in Period of the study, and subjects received double-blind study drug during the Primary Assessment Period of the study.
# Duration of Treatment and Follow-up included: 1) Run-in Period: Screening through initiation of Baseline. Subjects underwent Screening assessments to assess whether they satisfied the eligibility criteria. They participated in the Run-in Period (of at least 12 days duration) to confirm a stable asthma medication regimen and to assess adherence to the dosing schedule, after which eligible subjects were randomized. 2) Primary Assessment Period: Baseline through completion of Week 12. After the collection of all Baseline assessments, subjects began receiving study drug for 12 weeks. […] The Week 12 visit was the Primary Outcome Visit for the study. Subjects took the last dose of study drug at the Week 12 visit. 3) Eosinophil Recovery Period: Conclusion of Week 12 assessments through Week 24. Following the Primary Assessment Period, subjects entered the Eosinophil Recovery Period. […] Specific sites were designated to perform either Week 16 or Week 18 visits for subjects enrolled at their site. The Week 20 and Week 24 visits were at the site or at a designated remote laboratory facility.
# The study population was limited to subjects with a physician diagnosis of asthma for ≥12 months and eligibility criteria described herein.
# The primary endpoint of this study was the change in blood absolute eosinophil count from Baseline to Week 12. Absolute eosinophil counts were transformed to the log 10 scale. To avoid taking the log of zero, zeroes were replaced with 5 cells/μL in conventional units and 0.005×10^9/L in the International System of Units (SI), which is 50% of the lower limit of quantification. The geometric mean of all eosinophil counts obtained between the Screening and Baseline visits were used to establish the baseline eosinophil count used in the efficacy analyses.
# The primary analysis was a mixed-effect model with repeated-measures (MMRM) with terms for baseline, the 3 level of GINA treatment step as a categorical variable, treatment, visit, treatment by visit interaction, and baseline by visit interaction as fixed effects, and subjects as a random effect. An unstructured covariance was used.
# Estimated LS means of treatment effects and estimated difference in treatment effects at each visit were back transformed to the original scale to present estimated geometric means for treatment effects and ratio of geometric means of treatment effects along with 95% CI.
# [4] = system: subjects with eosinophilic asthma
# Protocol: as §1
# Although some of the responsible factors are modifiable, such as suboptimal medication adherence and poor inhaler technique, others reflect intrinsic deficiencies in available asthma pharmacotherapy. This deficiency is particularly apparent in patients prone to severe asthma exacerbations. […] However, all of the biologics require parenteral administration. […] A 4-arm dose ranging placebo-controlled design was chosen to provide a range of drug exposure. Blood eosinophil lowering was chosen as the primary endpoint to facilitate identification of the lowest effective dose for use in future clinical development. The Primary Assessment Period of 12 weeks was chosen to provide adequate time to observe both pharmacodynamic endpoints, such as eosinophil lowering, as well as the clinical endpoints that may improve as a consequence of eosinophil lowering (FEV1, FVC, ACQ-6, ACQ-7, and AQLQ). The 12-week Eosinophil Recovery Period was chosen based on expected recovery to near baseline count in most subjects.
# blood eosinophils [5] = conditions: 150 mg twice daily, after 6 months, open label, 16 subjects with eosinophilic chronic rhinosinusitis with nasal polyps
# From the text: The co-primary endpoints were change in AEC and change in total polyp score (TPS) from baseline to Month 6, with additional clinical and histologic endpoints assessed.
# [6] = system: subjects with eosinophilic asthma; remark: listed apart in the source
# From the text: Evaluation of Safety: Physical examination, vital signs (systolic and diastolic blood pressure, respiratory rate, heart rate, and temperature), body weight, 12-lead ECG, clinical laboratory evaluations (hematology, blood chemistry, and urinalysis), pregnancy testing, adverse event monitoring, and concomitant medication were monitored throughout the study. […] A neutropenia case report form was utilized during the study to capture detailed clinical information concurrent with any laboratory events of neutropenia.
# [7] = 75 mg/day, Week 12, efficacy population N = 22
# [8] = 150 mg/day, Week 12, efficacy population N = 24
# [9] = 300 mg/day, Week 12, efficacy population N = 28
smiles,measurement,setting,value
"CCCN[C@@H]1CCc2nc(N)sc2C1 [dexpramipexole, (6R)-2-amino-4,5,6,7-tetrahydro-6-(propylamino) benzothiazole]",ACQ-6 Change from Baseline LSM,[1]; 75 mg/day,−0.419
same,ACQ-6 Difference vs Placebo LSM (95% CI),[1]; 75 mg/day,"−0.0276 (−0.560, 0.505)"
same,ACQ-6 Change from Baseline LSM,[1]; 150 mg/day,−0.437
same,ACQ-6 Difference vs Placebo LSM (95% CI),[1]; 150 mg/day,"−0.0457 (−0.575, 0.484)"
same,ACQ-6 Change from Baseline LSM,[1]; 300 mg/day,−0.655
same,ACQ-6 Difference vs Placebo LSM (95% CI),[1]; 300 mg/day,"−0.264 (−0.772, 0.245)"
same,ACQ-6 scores,"[1]; across several dose groups, 12 weeks (Table 13)",improved
same,"Post-Bronchodilator FEV1 Reversibility % change, mean",[2]; 75 mg/day,−58.7%
same,"Post-Bronchodilator FEV1 Reversibility % change, median",[2]; 75 mg/day,−49.9%
same,"Post-Bronchodilator FEV1 Reversibility change, mean",[2]; 75 mg/day,-112 mL
same,"Post-Bronchodilator FEV1 Reversibility change, median",[2]; 75 mg/day,-55.0 mL
same,"Post-Bronchodilator FEV1 Reversibility observed, mean",[2]; 75 mg/day,264 mL
same,"Post-Bronchodilator FEV1 Reversibility observed, median",[2]; 75 mg/day,235 mL
same,"Post-Bronchodilator FEV1 Reversibility % change, mean",[2]; 150 mg/day,−39.8%
same,"Post-Bronchodilator FEV1 Reversibility % change, median",[2]; 150 mg/day,−9.68%
same,"Post-Bronchodilator FEV1 Reversibility change, mean",[2]; 150 mg/day,-72.3 mL
same,"Post-Bronchodilator FEV1 Reversibility change, median",[2]; 150 mg/day,0 mL
same,"Post-Bronchodilator FEV1 Reversibility observed, mean",[2]; 150 mg/day,279 mL
same,"Post-Bronchodilator FEV1 Reversibility observed, median",[2]; 150 mg/day,235 mL
same,"Post-Bronchodilator FEV1 Reversibility % change, mean",[2]; 300 mg/day,−19.6%
same,"Post-Bronchodilator FEV1 Reversibility % change, median",[2]; 300 mg/day,−19.0%
same,"Post-Bronchodilator FEV1 Reversibility change, mean",[2]; 300 mg/day,-109 mL
same,"Post-Bronchodilator FEV1 Reversibility change, median",[2]; 300 mg/day,-50.0 mL
same,"Post-Bronchodilator FEV1 Reversibility observed, mean",[2]; 300 mg/day,336 mL
same,"Post-Bronchodilator FEV1 Reversibility observed, median",[2]; 300 mg/day,290 mL
same,Bronchodilator reversibility,"[2]; Week 12, 3 DEX arms vs. placebo",preserved
same,"Subjects with AEC ≤50 cells/pL, %",blood eosinophils [3]; [7],(22.7%)
same,"Subjects with AEC ≥50% reduction from Baseline to Week 12, %",blood eosinophils [3]; [7],(50.07%)
same,"Subjects with AEC ≤50 cells/pL, %",blood eosinophils [3]; [8],(37.5%)
same,"Subjects with AEC ≥50% reduction from Baseline to Week 12, %",blood eosinophils [3]; [8],(62.5%)
same,"Subjects with AEC ≤50 cells/pL, %",blood eosinophils [3]; [9],(42.9%)
same,"Subjects with AEC ≥50% reduction from Baseline to Week 12, %",blood eosinophils [3]; [9],(57.1%)
same,Reduction in AEC,"blood eosinophils [3]; Week 12 compared with baseline, up to 300 mg/day",≤ 80%
same,Dexpramipexole treated subjects with a greater than or equal to 50% reduction in AEC,blood eosinophils [3]; all dose groups,approximately 60%
same,Number of hematologic responders compared with placebo,"blood eosinophils [3]; blood eosinophil count of ≤50 cells/μL at week 12, dose-dependent",significantly increased
same,"Pre-Bronchodilator FVC, % change from Baseline, mean","[4]; 75 mg/day, Week 4",2.82%
same,Pre-bronchodilator FVC change from Baseline LSM,"[4]; 75 mg/day, Week 4",0.0925
same,Pre-bronchodilator FVC difference versus Placebo LSM,"[4]; 75 mg/day, Week 4",0.0785
same,"Pre-Bronchodilator FVC, % change from Baseline, mean","[4]; 75 mg/day, Week 8",7.17%
same,Pre-bronchodilator FVC change from Baseline LSM,"[4]; 75 mg/day, Week 8",0.155
same,Pre-bronchodilator FVC difference versus Placebo LSM,"[4]; 75 mg/day, Week 8",0.149
same,"Pre-Bronchodilator FVC, % change from Baseline, mean","[4]; 75 mg/day, Week 12",7.93%
same,Pre-bronchodilator FVC change from Baseline LSM,"[4]; 75 mg/day, Week 12",0.181
same,Pre-bronchodilator FVC difference versus Placebo LSM,"[4]; 75 mg/day, Week 12",0.140
same,"Pre-Bronchodilator FVC, % change from Baseline, mean","[4]; 75 mg/day, Week 16 or Week 18",13.4%
same,Pre-bronchodilator FVC change from Baseline LSM,"[4]; 75 mg/day, Week 16 or Week 18",0.297
same,Pre-bronchodilator FVC difference versus Placebo LSM,"[4]; 75 mg/day, Week 16 or Week 18",0.329
same,"Pre-Bronchodilator FVC, % change from Baseline, mean","[4]; 150 mg/day, Week 4",3.54%
same,Pre-bronchodilator FVC change from Baseline LSM,"[4]; 150 mg/day, Week 4",0.122
same,Pre-bronchodilator FVC difference versus Placebo LSM,"[4]; 150 mg/day, Week 4",0.108
same,"Pre-Bronchodilator FVC, % change from Baseline, mean","[4]; 150 mg/day, Week 8",5.28%
same,Pre-bronchodilator FVC change from Baseline LSM,"[4]; 150 mg/day, Week 8",0.152
same,Pre-bronchodilator FVC difference versus Placebo LSM,"[4]; 150 mg/day, Week 8",0.146
same,"Pre-Bronchodilator FVC, % change from Baseline, mean","[4]; 150 mg/day, Week 12",3.63%
same,Pre-bronchodilator FVC change from Baseline LSM,"[4]; 150 mg/day, Week 12",0.0714
same,Pre-bronchodilator FVC difference versus Placebo LSM,"[4]; 150 mg/day, Week 12",0.0304
same,"Pre-Bronchodilator FVC, % change from Baseline, mean","[4]; 150 mg/day, Week 16 or Week 18",7.33%
same,Pre-bronchodilator FVC change from Baseline LSM,"[4]; 150 mg/day, Week 16 or Week 18",0.143
same,Pre-bronchodilator FVC difference versus Placebo LSM,"[4]; 150 mg/day, Week 16 or Week 18",0.175
same,"Pre-Bronchodilator FVC, % change from Baseline, mean","[4]; 300 mg/day, Week 4",1.91%
same,Pre-bronchodilator FVC change from Baseline LSM,"[4]; 300 mg/day, Week 4",0.0983
same,Pre-bronchodilator FVC difference versus Placebo LSM,"[4]; 300 mg/day, Week 4",0.0844
same,"Pre-Bronchodilator FVC, % change from Baseline, mean","[4]; 300 mg/day, Week 8",11.5%
same,Pre-bronchodilator FVC change from Baseline LSM,"[4]; 300 mg/day, Week 8",0.322
same,Pre-bronchodilator FVC difference versus Placebo LSM,"[4]; 300 mg/day, Week 8",0.316
same,"Pre-Bronchodilator FVC, % change from Baseline, mean","[4]; 300 mg/day, Week 12",8.95%
same,Pre-bronchodilator FVC change from Baseline LSM,"[4]; 300 mg/day, Week 12",0.257
same,Pre-bronchodilator FVC difference versus Placebo LSM,"[4]; 300 mg/day, Week 12",0.216
same,"Pre-Bronchodilator FVC, % change from Baseline, mean","[4]; 300 mg/day, Week 16 or Week 18",9.11%
same,Pre-bronchodilator FVC change from Baseline LSM,"[4]; 300 mg/day, Week 16 or Week 18",0.267
same,Pre-bronchodilator FVC difference versus Placebo LSM,"[4]; 300 mg/day, Week 16 or Week 18",0.299
same,Lowering of the AEC,blood eosinophils [5],94%
same,Safety and tolerability,"[6]; 300 mg/day and 150 mg/day doses, KNS-760704-AS201 trial","Lastly, the excellent safety and tolerability of the above doses in the KNS-760704-AS201 trial and in previous"
same,Tolerability,"[6]; across all dose levels (75, 150, 300 mg/day, 12 weeks)",well-tolerated
